Legend:
[1] = target: norepinephrine transporter (Homo sapiens, UniProt P23975); details: cited from earlier work
[2] = target: dopamine transporter (DAT); details: dopamine transporter (DAT) ligand; cited from earlier work
[3] = target: serotonine transporter (Homo sapiens, UniProt P31645); details: cited from earlier work
[4] = Chemical and radiochemical stability of the radiotracer preparation by HPLC; type: physicochemical; details: preparation ready for i.v. injection (physiological saline, ethanol below 10%); HPLC D at regular 15-min intervals during 120 min
Description: Quality controls of [^18F]LBT-999 ([^18F]-10) were performed on an aliquot of the preparation ready for i.v. injection. The radiotracer preparation was a clear and colourless solution with a measured pH between 5 and 7.
Quality control of [^18F]LBT-999 ([^18F]-10). The radiotracer preparation was visually inspected for clarity, absence of colour and particulates. An aliquot of the preparation was removed for determination of pH using standard pH-paper. Chemical and radiochemical purities were also assessed on this aliquot by HPLC (HPLC D), with a sample of authentic 10 (tR : 2.25 min) which synthesis and characterization were disclosed in Dollé F et al., 2006. Particular attention was paid to the absence of non-radioactive precursor 9 (tR: 3.45 min). Chemical and radiochemical stability of the entire preparation was tested by HPLC (HPLC D) at regular 15-min intervals during 120 min. Specific radioactivity of the radiotracer was calculated from three consecutive HPLC (HPLC D) analyses (average) and determined as follows: The area of the UV absorbance peak corresponding to the radiolabelled product was measured (integrated) on the HPLC chromatogram and compared to a standard curve relating mass to UV absorbance.

Sequence of serotonine transporter (P31645 whole entry): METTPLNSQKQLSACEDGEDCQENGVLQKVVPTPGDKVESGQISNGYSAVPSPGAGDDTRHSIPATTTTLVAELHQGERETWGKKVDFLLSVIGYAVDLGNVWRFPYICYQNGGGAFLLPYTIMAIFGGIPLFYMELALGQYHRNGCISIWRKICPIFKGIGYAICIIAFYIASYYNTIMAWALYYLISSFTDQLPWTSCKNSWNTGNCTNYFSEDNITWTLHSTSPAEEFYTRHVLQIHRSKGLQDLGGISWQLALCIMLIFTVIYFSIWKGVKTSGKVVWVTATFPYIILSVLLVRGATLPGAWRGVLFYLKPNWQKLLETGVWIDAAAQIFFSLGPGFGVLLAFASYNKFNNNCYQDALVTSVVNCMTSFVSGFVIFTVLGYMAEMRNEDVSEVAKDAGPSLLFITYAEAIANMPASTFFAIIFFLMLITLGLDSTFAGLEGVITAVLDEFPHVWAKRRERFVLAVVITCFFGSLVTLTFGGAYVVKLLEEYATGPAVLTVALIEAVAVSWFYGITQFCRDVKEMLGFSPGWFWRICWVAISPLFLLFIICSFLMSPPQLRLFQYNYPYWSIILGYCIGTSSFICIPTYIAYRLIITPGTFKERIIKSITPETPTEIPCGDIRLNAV
Sequence of norepinephrine transporter (P23975 whole entry): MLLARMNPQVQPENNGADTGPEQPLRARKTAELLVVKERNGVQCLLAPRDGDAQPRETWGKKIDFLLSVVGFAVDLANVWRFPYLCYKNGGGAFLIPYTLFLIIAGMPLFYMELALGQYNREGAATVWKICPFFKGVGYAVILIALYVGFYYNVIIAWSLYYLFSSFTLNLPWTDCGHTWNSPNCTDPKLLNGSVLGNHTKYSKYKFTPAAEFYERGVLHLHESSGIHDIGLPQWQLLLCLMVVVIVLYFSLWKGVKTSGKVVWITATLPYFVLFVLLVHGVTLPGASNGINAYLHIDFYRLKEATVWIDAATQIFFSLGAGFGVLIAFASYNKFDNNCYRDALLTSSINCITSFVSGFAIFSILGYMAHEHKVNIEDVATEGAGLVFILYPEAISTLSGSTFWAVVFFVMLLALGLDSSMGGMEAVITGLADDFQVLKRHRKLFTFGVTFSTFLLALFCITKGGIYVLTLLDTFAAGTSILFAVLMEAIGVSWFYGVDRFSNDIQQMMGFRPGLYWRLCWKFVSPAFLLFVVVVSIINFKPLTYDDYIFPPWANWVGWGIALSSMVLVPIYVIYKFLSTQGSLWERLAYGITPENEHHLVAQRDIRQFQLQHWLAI

Row | Compound | IC50 [1] [nM] | Kd [2] [nM] | IC50 [3] [nM] | chemically and radiochemically stable [4]
1 | COC(=O)[C@H]1[C@@H](c2ccc(C)cc2)C[C@@H]2CC[C@H]1N2C/C=C/CF [LBT-999, 8-((E)-4-fluoro-but-2-enyl)-3β-p-tolyl-8-aza-bicyclo[3.2.1]octane-2β-carboxylic acid methyl ester] | > 1000 | 9 | > 1000 | –
2 | COC(=O)[C@H]1[C@@H](c2ccc(C)cc2)C[C@@H]2CC[C@H]1N2C/C=C/C[18F] [[^18F]LBT-999, 8-((E)-4-[^18F]fluoro-but-2-enyl)-3β-p-tolyl-8-aza-bicyclo-[3.2.1]octane-2β-carboxylic acid methyl ester] | – | – | – | at least 120 minutes

Reference: patent EP1925615B1, “Method of fluorine-18 labelling of tropane derivatives” (Orphachem, priority 2006, dated 2008)
